Data as given in patent publication US20240166627A1, “Terpyridinedione compound or salt thereof, and preparation method and application thereof” (SHENZHEN SALUBRIS PHARMACEUTICALS CO., LTD., priority 2021, published 2024).
In brackets after ≈: the same amount, converted by molar mass.

Tests used:
[1] = Determination of solubility; format: physicochemical; settings: aqueous buffer, thermodynamic from solid, 37° C. 1 h
Method: About 0.5 mg of a to-be-tested sample in a centrifuge tube is weighted, an appropriate amount of DMSO is added to completely dissolve the sample, and then methanol is added to make up to 1 ml.
(If there are more pH values to be investigated, the preparation method may be deduced by analogy).
3. The prepared control solution and test solution are simultaneously put into a 37° C. water bath and heated for 1 h, after 1 h, the solutions are taken out and cooled to room temperature, and then the solutions are filtered with a 0.22 μm filter membrane for sample injection.
4. The concentration of the sample in the test solution is calculated according to C=(A*(ms/vs))/AS, and experiment results are shown in Table 2.
Note: ms, vs and AS are the weight, volume and peak area of the sample in the control solution, respectively.
A is the peak area of the test solution.

[2] = test system: production of TNFα in U937; assay: Releasing TNFα from U937 induced by LPS; format: cell-based; settings: Homo sapiens, U-937; PMA-differentiated U937, LPS 100 ng/ml, 4 h; read-out: IC50 value that the compound inhibits the production of TNFα
From the text: Cytokine regulation in human monocytes has shown that the p38 pathway is the key to the biosynthesis of a plurality of pro-inflammatory cytokines including TNFα, IL-1β and IL-6. Therefore, the inhibition of the p38 MAPK pathway is to reduce inflammatory response by reducing the biosynthesis of the pro-inflammatory cytokines. […] This is a reflection of the effect of the compound in the present invention to facilitate reduction of inflammation, which is useful in the treatment of various diseases, including chronic inflammatory diseases, acute inflammatory diseases, or self-inflammatory diseases. The potency and efficacy of the p38 inhibitor in blocking cytokine production are evaluated using a human U937 cell line.
A 1640 medium with an article number being A10491-01, Gibco; penicillin-streptomycin with an article number being 15140-122, Gibco; fetal bovine serum with an article number being 10099-141C, Gibco; PBS with an article number being 10010-031, Gibco; LPS with an article number being L2880, Sigma; PMA with an article number being P1585, Sigma; dimethyl sulfoxide with an article number being D8418-1L, Sigma; and a TNFα kit with an article number being K151QWD-4, MSD.
A 96-well plate with an article number being 3599, Corning; a plate-vibrating device with an article number being QB-9002, QILINBEIER; a centrifuge with an article number being 5810R, Eppendorf; a carbon dioxide incubator with an article number being 371, Thermo; a counter with an article number being C10281, Gibco; a microscope with an article number being CKX41, OLYMPUS; and an MSD plate reader with an article number being 1201 MESO SECTOR 600, MSD.
U937, ATCC with an article number being CRL-1593.2.
About 2 mg of a drug is weighted; a mother solution is prepared to 10 mM (which is calculated by free alkali) by means of DMSO; and the mother solution is diluted 10-fold to 1 mM, and then is successively diluted 4-fold to 250 μM, 62.5 μM, 15.6 μM, 3.9 μM, 0.97 μM, 0.24 μM, and 0.061 μM. The above series of diluted DMSO drugs is diluted 20-fold as working solutions by using media.
At Day 0, 10000/well inoculation is performed, stimulation is performed for 48 h with 20 ng/ml of PMA, and culture is performed at 37° C., 5% CO2. • At Day 2, 1. Supernatant is removed from differentiated U937, cleaning is performed once with PBS, and 96 μl of the 1640 medium is added. • 2. 2 μl of the compound containing (DMSO with a final concentration being 0.1%), and culture is performed for 30 min at 37° C., 5% CO2. • 3. 2 μl of LPS (a final concentration being 100 ng/ml) is added, cells are stimulated, and culture is performed for 4 h at 37° C., 5% CO2. • 4. Centrifugation is performed, supernatant is taken, and content of TNFα in the supernatant is determined through ELISA.
The content of TNFα corresponding to each well is calculated by using a standard curve in the kit.
The compound IC50 is calculated by using a GraphPad nonlinear fitting formula, and for an experimental result, refer to Table 1.

p38β = p38β (Homo sapiens, UniProt Q15759); assay: p38β kinase screening experiment (ADP-Glo); format: biochemical; settings: ATP 100 μM in the substrate/ATP mix, 60 min; read-out: IC50 value that the compound inhibits p38β
Method: A certain amount of the compound is weighed, prepared into a 10/50 mM mother solution with DMSO, diluted 3 folds with DMSO, and diluted to 10 concentration points as a compound working solution.
50 nL of the diluted compound working solution is transferred to each well of a reaction plate (784075, Greiner) with Echo 655, then 2.5 μL (2 ng/μL) of a p38β kinase solution is added; after 10 minutes at room temperature, 2.5 μL of a mixed solution of a kinase substrate (0.4 mg/mL) and ATP (100 μM) is added, for reaction for 60 min at room temperature; and 4 μL of an ADP Glo reagent is added, for incubation for 40 min at room temperature. 8 μL of a kinase detection reagent is added, for incubation for 40 min at room temperature; and finally a light-emitting signal is read on Envision 2104.

[3] = Pharmacokinetic experiment in Beagle dogs (IV and PO); format: in vivo; settings: male, dog, plasma
From the text: Polyethylene glycol 400 (batch number: GORKREUT, Saen Chemical Technology (Shanghai) Co., Ltd.); DMSO (batch number: 20200319, GHTECH (Guangdong) Co., Ltd.); and normal saline (batch number: C20052604, Jiangxi Kelun Pharmaceutical Co., Ltd.). An LC-MS instrument (Thermo Fisher Ultimate 3000 UPLC, TSQ QUANTUM ULTRA TSQ Quantum GC).
5 male Beagle dogs with weights being 5 kg to 7 kg, purchased from Beijing Mars Biotechnology Co., Ltd. […]
After the above mixture is given to the dogs through intragastric administration (n=3) or intravenous administration (n=2), about 1 mL of blood is collected from the forelimb or hindlimb vein with a scalp needle, respectively, at 5 min (intravenous administration only), 15 min, 30 min, 1 h, 2 h, 4 h, 6 h, 8 h, 24 h to put into blood collection tubes containing EDTA-K2 anticoagulant; centrifugation is performed for 10 min at 4000 rpm to separate plasma; and then the tubes are stored at −80° C. for testing.
A certain amount of a test sample is accurately weighted and dissolved with DMSO to 2 mg/mL, as a stock solution. The stock solution is diluted to 30000, 10000, 3000, 1000, 300, 100, 50, 30, and 10 ng/mL by using acetonitrile:water (1:1), to obtain standard curve working solutions. 5 μL of the working solution is added to 45 μL of blank canine plasma; and well mixing is performed through vortex, to prepare into standard curve samples equivalent to plasma concentrations of 3000, 1000, 300, 100, 30, 10, 5, 3, and 1 ng/mL. 30 μL of the standard curve sample and the collected plasma sample (plasma collected at 5 min, 15 min, and 30 min of intravenous administration is diluted 5-fold) are added to 150 μL of a propranolol acetonitrile solution (internal standard, 50 ng/mL) to precipitate protein, then 100 μL of water is added to well mix through vortex; centrifugation is performed for 5 min at 4000 rpm; and supernatant is taken for LC-MS analysis. LC-MS detection conditions include the following.
Chromatographic column: Waters ACQUITY™ PREMIER HSS T3, 50*2.1 mm, 1.8 μm.
Mobile phase A: water (0.1% formic acid); mobile phase B: acetonitrile; flow rate: 0.5 mL/min; and gradient elution is shown in Table 3 below.
After LC-MS detection of blood drug concentration, and a non-compartment model of WinNonlin 6.1 software is adopted to calculate pharmacokinetic parameters of beagle dogs after administration.

Sequence of p38β (Q15759 whole entry): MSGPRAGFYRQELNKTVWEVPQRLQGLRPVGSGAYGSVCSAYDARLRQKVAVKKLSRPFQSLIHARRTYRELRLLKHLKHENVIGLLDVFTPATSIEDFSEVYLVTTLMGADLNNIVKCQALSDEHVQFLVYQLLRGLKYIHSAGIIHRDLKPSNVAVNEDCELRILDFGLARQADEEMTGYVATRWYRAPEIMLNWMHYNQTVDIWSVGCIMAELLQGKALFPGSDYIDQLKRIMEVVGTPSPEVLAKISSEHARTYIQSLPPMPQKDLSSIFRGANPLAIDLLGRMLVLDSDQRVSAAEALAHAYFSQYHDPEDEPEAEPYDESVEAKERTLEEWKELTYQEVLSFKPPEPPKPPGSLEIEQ

Cc1cnc(-c2ccnc(C(C)(C)O)n2)cc1-n1c(C)cc(OCc2ncc(F)cc2F)c(Cl)c1=O (racemic) [Comparative example 1]
solubility at 1 h ([1]; pH = 2.0, PBS buffer): 56.8 µg/mL (≈ 111 µM) | solubility at 1 h ([1]; pH = 7.4, PBS buffer): 26.8 µg/mL (≈ 52.1 µM) | IC50 [2]: 10.4 nM | IC50 (p38β): 5.97 µM | AUC(0-t) ([3]; IV 1 mg/kg): 1530 ng·h/mL | Cmax ([3]; IV 1 mg/kg): 657 ng/mL | clearance ([3]; IV 1 mg/kg): 10.7 mL/min/kg | AUC(0-t) ([3]; PO 5 mg/kg): 14400 ng·h/mL | Cmax ([3]; PO 5 mg/kg): 2000 ng/mL | bioavailability ([3]; PO 5 mg/kg vs IV 1 mg/kg): 189%
